Where a name gives a salt, the structure may show the parent alone. Read-outs that look alike come from different tables or passages of the source.
Key:
Format in all cases: cell-based
S. aureus ATCC 25923 = assay: MIC, CLSI broth microdilution (Table 1); conditions: Staphylococcus aureus
[1] = tested on: S. aureus ATCC 43300 (MRSA, FQ-S); assay: MIC, CLSI broth microdilution (Table 1); conditions: Staphylococcus aureus, read-out: MIC S. aureus ATCC 43300 (MRSA, FQ-S)
[2] = tested on: S. aureus BAA-1720 (MRSA, FQ-R); assay: MIC, CLSI broth microdilution (Table 1); conditions: Staphylococcus aureus, read-out: MIC S. aureus BAA-1720 (MRSA, FQ-R)
E. faecium ATCC 19434 = assay: MIC, CLSI broth microdilution (Table 1); conditions: Enterococcus faecium
E. faecalis ATCC 29212 = assay: MIC, CLSI broth microdilution (Table 1); conditions: Enterococcus faecalis
S. pneumonia ATCC 49619 = assay: MIC, CLSI broth microdilution (Table 1); conditions: Streptococcus pneumoniae
E. coli ATCC 25922 = assay: MIC, CLSI broth microdilution (Table 2); conditions: Escherichia coli
A. baumannii ATCC 19606 = assay: MIC, CLSI broth microdilution (Table 2); conditions: Acinetobacter baumannii
P. aeruginosa ATCC 27853 = assay: MIC, CLSI broth microdilution (Table 2); conditions: Pseudomonas aeruginosa
K. pneumoniae ATCC 33495 = assay: MIC, CLSI broth microdilution (Table 2); conditions: Klebsiella pneumoniae
H. influenzae ATCC 49247 = assay: MIC, CLSI broth microdilution (Table 2); conditions: Haemophilus influenzae
[3] = tested on: S. maltophilia ATCC 17677; assay: MIC, CLSI broth microdilution (Table 2); conditions: Stenotrophomonas maltophilia
[4] = tested on: Bacillus anthracis Ames strain; assay: microbe, parasite or virus in culture
[5] = tested on: Brucella abortus ATCC 23448; assay: microbe, parasite or virus in culture; conditions: ATCC23448
[6] = tested on: Burkholderia mallei ATCC 23344; assay: microbe, parasite or virus in culture; conditions: ATCC23344
[7] = tested on: Burkholderia pseudomallei ATCC 23343; assay: microbe, parasite or virus in culture; conditions: ATCC23343
[8] = tested on: Francisella tularensis Schu S4; assay: microbe, parasite or virus in culture; conditions: SCHUS4
Yersinia pestis C092 = assay: microbe, parasite or virus in culture
[9] = ATCC25923, read-out: MIC S. aureus ATCC 25923
[10] = ATCC19434, read-out: MIC E. faecium ATCC 19434
[11] = ATCC29212, read-out: MIC E. faecalis ATCC 29212
[12] = ATCC49619, read-out: MIC S. pneumonia ATCC 49619
[13] = ATCC25922, read-out: MIC E. coli ATCC 25922
[14] = ATCC19606, read-out: MIC A. baumannii B. ATCC 19606
[15] = ATCC27853, read-out: MIC P. aeruginosa ATCC 27853
[16] = ATCC33495, read-out: MIC K. pneumoniae ATCC 33495
[17] = ATCC49247, read-out: MIC H. influenzae ATCC 49247
[18] = ATCC17677, read-out: MIC S. maltophilia ATCC 17677
[19] = ATCC25923, Gram positive, MHB, 37° C., 16-20 hours, read-out: MIC S. aureus ATCC 25923
[20] = Gram positive, MHB, 37° C., 16-20 hours
[21] = ATCC19434, Gram positive, MHB, 37° C., 16-20 hours, read-out: MIC E. faecium ATCC 19434
[22] = ATCC29212, Gram positive, MHB, 37° C., 16-20 hours, read-out: MIC E. faecalis ATCC 29212
[23] = ATCC49619, Gram positive, MHB, 37° C., 16-20 hours, read-out: MIC S. pneumonia ATCC 49619
[24] = ATCC19606, Gram negative, MHB, 37° C., 16-20 hours, read-out: MIC A. baumannii B. ATCC 19606
[25] = ATCC27853, Gram negative, MHB, 37° C., 16-20 hours, read-out: MIC P. aeruginosa ATCC 27853
[26] = ATCC49247, Gram negative, MHB, 37° C., 16-20 hours, read-out: MIC H. influenzae ATCC 49247
[27] = ATCC17677, Gram negative, MHB, 37° C., 16-20 hours, read-out: MIC S. maltophilia ATCC 17677

## Cc1c(-c2ccc(O)cc2)ccn2c(=O)c(C(=O)O)cc(C3CC3)c12 [Example 46 K salt, 1-cyclopropyl-8-(4-hydroxy-phenyl)-9-methyl-4-oxo-4H-quinolizine-3-carboxylic acid]
S. aureus ATCC 25923; [9]
  MIC: ≤ 4 ng/mL
[1]
  MIC: ≤ 4 ng/mL
[2]
  MIC: 0.125 µg/mL
E. faecium ATCC 19434; [10]
  MIC: 0.25 µg/mL
E. faecalis ATCC 29212; [11]
  MIC: 0.016 µg/mL
S. pneumonia ATCC 49619; [12]
  MIC: 0.032 µg/mL
E. coli ATCC 25922; [13]
  MIC: 0.032 µg/mL
A. baumannii ATCC 19606; [14]
  MIC: 0.064 µg/mL
P. aeruginosa ATCC 27853; [15]
  MIC: 1 to 2 µg/mL
K. pneumoniae ATCC 33495; [16]
  MIC: 0.064 µg/mL
H. influenzae ATCC 49247; [17]
  MIC: ≤ 4 ng/mL
[3]; [18]
  MIC: 0.125 µg/mL
[4]
  MIC: 4 ng/mL
[5]
  MIC: 0.031 µg/mL
[6]
  MIC: 0.063 µg/mL
[7]
  MIC: 0.063 µg/mL
[8]
  MIC: 0.016 µg/mL
Yersinia pestis C092
  MIC: 0.008 to 0.016 µg/mL

## Cc1c(-c2ccc3[nH]ncc3c2)ccn2c(=O)c(C(=O)O)cc(C3CC3)c12 [Example 23 K salt, 1-cyclopropyl-8-(1H-indazol-5-yl)-9-methyl-4-oxo-4H-quinolizine-3-carboxylic acid]
S. aureus ATCC 25923; [9]
  MIC: ≤ 4 ng/mL
[1]
  MIC: ≤ 4 ng/mL
[2]
  MIC: 0.125 µg/mL
E. faecium ATCC 19434; [10]
  MIC: 0.25 µg/mL
E. faecalis ATCC 29212; [11]
  MIC: 0.008 µg/mL
S. pneumonia ATCC 49619; [12]
  MIC: 0.064 µg/mL
E. coli ATCC 25922; [13]
  MIC: 0.032 µg/mL
A. baumannii ATCC 19606; [14]
  MIC: 0.125 µg/mL
P. aeruginosa ATCC 27853; [15]
  MIC: 2 µg/mL
K. pneumoniae ATCC 33495; [16]
  MIC: 0.125 µg/mL
H. influenzae ATCC 49247; [17]
  MIC: ≤ 4 ng/mL
[3]; [18]
  MIC: 0.064 µg/mL
[4]
  MIC: 4 ng/mL
[5]
  MIC: 0.016 µg/mL
[6]
  MIC: 0.063 µg/mL
[7]
  MIC: 0.063 µg/mL
[8]
  MIC: 0.016 µg/mL
Yersinia pestis C092
  MIC: 0.016 to 0.031 µg/mL

## Cc1c(-c2cccc(N)c2)ccn2c(=O)c(C(=O)O)cc(C3CC3)c12 [Example 3 K salt, 8-(3-amino-phenyl)-1-cyclopropyl-9-methyl-4-oxo-4H-quinolizine-3-carboxylic acid]
S. aureus ATCC 25923; [19]
  MIC: 16 ng/mL
[1]; [20]
  MIC: 16 ng/mL
[2]; [20]
  MIC: 0.5 µg/mL
E. faecium ATCC 19434; [21]
  MIC: 1 µg/mL
E. faecalis ATCC 29212; [22]
  MIC: 0.064 µg/mL
S. pneumonia ATCC 49619; [23]
  MIC: 0.25 µg/mL
E. coli ATCC 25922; [13]
  MIC: 0.064 to 0.125 µg/mL
A. baumannii ATCC 19606; [24]
  MIC: 0.25 µg/mL
P. aeruginosa ATCC 27853; [25]
  MIC: 2 µg/mL
K. pneumoniae ATCC 33495; ATCC33495, Gram negative, MHB, 37° C., 16-20 hours, read-out: MIC K. pneumoniae ATCC 33495
  MIC: 0.25 µg/mL
H. influenzae ATCC 49247; [26]
  MIC: 16 ng/mL
[3]; [27]
  MIC: 0.25 µg/mL
[4]
  MIC: 8 ng/mL
[5]
  MIC: 0.125 µg/mL
[6]
  MIC: 0.5 to 1 µg/mL
[7]
  MIC: 0.25 µg/mL
[8]
  MIC: 0.031 µg/mL
Yersinia pestis C092
  MIC: 0.031 to 0.063 µg/mL

## Cc1c(-c2cc(N)cc(F)c2)ccn2c(=O)c(C(=O)O)cc(C3CC3)c12 [Example 9 K salt, 8-(3-amino-5-fluoro-phenyl)-1-cyclopropyl-9-methyl-4-oxo-4H-quinolizine-3-carboxylic acid]
S. aureus ATCC 25923; [19]
  MIC: 8 ng/mL
[1]; [20]
  MIC: 8 ng/mL
[2]; [20]
  MIC: 0.25 µg/mL
E. faecium ATCC 19434; [21]
  MIC: 0.5 µg/mL
E. faecalis ATCC 29212; [22]
  MIC: 0.032 µg/mL
S. pneumonia ATCC 49619; [23]
  MIC: 0.064 µg/mL
E. coli ATCC 25922; ATCC25922, Gram negative, MHB, 37° C., 16-20 hours, read-out: MIC E. coli ATCC 25922
  MIC: 0.064 µg/mL
A. baumannii ATCC 19606; [24]
  MIC: 0.125 µg/mL
P. aeruginosa ATCC 27853; [25]
  MIC: 2 µg/mL
K. pneumoniae ATCC 33495; [16]
  MIC: 0.125 to 0.25 µg/mL
H. influenzae ATCC 49247; [26]
  MIC: 8 ng/mL
[3]; [27]
  MIC: 0.25 µg/mL
[4]
  MIC: 8 ng/mL
[5]
  MIC: 0.063 µg/mL
[6]
  MIC: 0.125 to 0.25 µg/mL
[7]
  MIC: 0.25 µg/mL
[8]
  MIC: 0.016 µg/mL
Yersinia pestis C092
  MIC: 0.031 µg/mL

Reference: patent US20150141435A1, “2-PYRIDONE ANTIMICROBIAL COMPOSITIONS” (Emergent BioSolutions, priority 2010, published 2015)
